Assays:
[1] = measured to be as high as (Kanicky, 2002); cited from earlier work
[2] = Water solubility at neutral pH; format: physicochemical; details: inferred from pKa
Excerpt: Rudnic et al. point out that short chain fatty acids are ionized at neutral pH, giving them a […] solubility, and imply that long chain fatty acids are not ionized and, thus, are even less soluble in water. […] Further, medium to long chain (C8 to C22) fatty acids have very limited water solubility; when mixing with water these fatty acids tend to separate from water completely just as oil or fat do.

CCCCCCCC/C=C\CCCCCCCC(=O)O [oleic acid]
pKa [1]: ≤ 9.85 | water solubility [2]: essentially water insoluble

— patent US20090196861A1, “Biocompatible Latent Emulsifiers” (BIOAVAILABILITY, INC., priority 2005, published 2009)
